Measured values published in patent US6235284A, “Synthetic polypeptides belonging to the hepatitis C virus (HCV) and which can be used especially for detecting the latter” (Bio Merieux, priority 1992, dated 2001).
Several values for one entry are separate records, joined by “and”; a condition that tells them apart may be missing. Equal entries are not always repeated.

Assays:
[1] = system: anti-HCV antibodies (HCV-positive sera); experiment: ELISA detection of anti-HCV antibodies in HCV-positive sera with adsorbed peptides; type: binding, human; conditions: for optical density at 492 nm: peptide 10 μg/ml, duplicate
Protocol: The reactivity of these three peptides towards the sera of individuals infected with the hepatitis C virus, termed (HCV) positive, was evaluated in an ELISA test according to the procedure described below.
(§1) Detection of anti-HCV Antibodies by ELISA
(§2) The wells of a microtiter plate of "NUNC MAXISORB™" trademark are saturated with 100 μl of a solution containing the peptide or a mixture of peptides (10 μg/ml) for 2 hours at 37° C. The plate is then emptied, then washed with a wash buffer containing 0.05% TWEEN™ 20(polysorbate 20). The wells are saturated with 100 μl of wash buffer supplemented with 10% goat serum (v/v), then incubated for 30 minutes at 37° C., then washed again as above. The sera to be analyzed are diluted to the appropriate dilution with saturation buffer. The incubation of the sera is 1 hour at 37° C. The wells are again washed. The solution of conjugate (goat IgG to human IgG labelled with peroxidase) at a dilution of 1/1000 in the saturation buffer is then added and the incubation lasts for 90 minutes at 37° C. After washing, the solution of orthophenylenediamine substrate is added. After 10 minutes, the reaction is stopped with 50 μl of H2 SO4 and the optical density is read at 492 nm. It should be noted that all the tests were carried out in duplicate.
(§3) For that, the different peptides are adsorbed on the microplates at a concentration of 10 μg/ml and the sera are used at 1/100 dilution.
(§4) The values obtained, which are collated in Table 1 below, correspond to the optical density (OD) multiplied by 10^3, at 492 nm.
(§5) For each serum the experiment was carried out in duplicate. The **** are values outside the upper scale.
The different peptides are absorbed onto microplates at a concentration of 10 μg/ml and the sera are used at the dilution stated.
The values obtained, which are collated in Table 2 below, correspond to the optical density at 492 nm. All the experiments were carried out in duplicate.
Each serum was, in a first instance, tested at the dilution 1/100.
The values given correspond to the optical density read at 492 nm multiplied by the factor 10^3.

[2] = system: normal sera; experiment: ELISA of peptides on normal sera (specificity); type: binding, human; conditions: peptide 10 μg/ml, duplicate
Protocol: as §1, §2, §3, §4, §5

[3] = system: HCV-positive sera; conditions: Nasoff et al., recombinant fusion proteins; cited from earlier work

For “R40R: peptide extending from arginine 74 up to arginine 115 of the HCV CORE protein (RTWAQPGYPWPLYGNEGCGWAGWLLSPRGSRPSWGPTDPRRR)”, the “sera with which the peptide reacts” value ([1]; cf Table 1) was “about 10%”, the “optical density at 492 nm” value ([1]; serum B 1, 1/100) was 172 OD × 10^3 and 173 OD × 10^3 and the “optical density at 492 nm” value ([1]; serum B 2, 1/100) was 364 OD × 10^3 and 345 OD × 10^3. For the same substance, the “optical density at 492 nm” value ([1]; serum B 3, 1/100) was 304 OD × 10^3 and 341 OD × 10^3, the “optical density at 492 nm” value ([1]; serum B 4, 1/100) was 405 OD × 10^3 and 346 OD × 10^3 and the “optical density at 492 nm” value ([1]; serum B 5, 1/100) was 360 OD × 10^3 and 281 OD × 10^3. For the same substance, the “optical density at 492 nm” value ([1]; serum B 6, 1/100) was 172 OD × 10^3 and 163 OD × 10^3, the “optical density at 492 nm” value ([1]; serum B 7, 1/100) was 418 OD × 10^3 and 457 OD × 10^3 and the “optical density at 492 nm” value ([1]; serum B 8, 1/100) was 271 OD × 10^3 and 259 OD × 10^3. For the same substance, the “optical density at 492 nm” value ([1]; serum B 9, 1/100) was 235 OD × 10^3 and 229 OD × 10^3, the “optical density at 492 nm” value ([1]; serum B 10, 1/100) was 108 OD × 10^3 and 98 OD × 10^3 and the “optical density at 492 nm” value ([1]; serum B 11, 1/100) was 164 OD × 10^3 and 184 OD × 10^3. The “optical density at 492 nm” value ([1]; serum B 12, 1/100) was 136 OD × 10^3 and 117 OD × 10^3, the “optical density at 492 nm” value ([1]; serum B 13, 1/100) was 140 OD × 10^3 and 99 OD × 10^3 and the “optical density at 492 nm” value ([1]; serum B 14, 1/100) was 130 OD × 10^3 and 125 OD × 10^3. The “optical density at 492 nm” value ([1]; serum B 15, 1/100) was 301 OD × 10^3 and 303 OD × 10^3, the “optical density at 492 nm” value ([1]; serum B 16, 1/100) was 117 OD × 10^3 and 125 OD × 10^3 and the “optical density at 492 nm” value ([1]; serum P 1, 1/100) was 375 OD × 10^3 and 420 OD × 10^3. For the same substance, the “optical density at 492 nm” value ([1]; serum P 2, 1/100) was 399 OD × 10^3 and 391 OD × 10^3, the “optical density at 492 nm” value ([1]; serum P 3, 1/100) was 223 OD × 10^3 and 215 OD × 10^3 and the “optical density at 492 nm” value ([1]; serum P 4, 1/100) was 309 OD × 10^3 and 307 OD × 10^3. For the same substance, the “optical density at 492 nm” value ([1]; serum P 5, 1/100) was 129 OD × 10^3 and 176 OD × 10^3, the “optical density at 492 nm” value ([1]; serum P 6, 1/100) was 87 OD × 10^3 and 100 OD × 10^3 and the “optical density at 492 nm” value ([1]; serum P 7, 1/100) was 496 OD × 10^3 and 478 OD × 10^3. The “optical density at 492 nm” value ([1]; serum P 8, 1/100) was 282 OD × 10^3 and 328 OD × 10^3, the “optical density at 492 nm” value ([1]; serum P 9, 1/100) was 159 OD × 10^3 and 158 OD × 10^3 and the “optical density at 492 nm” value ([1]; serum P 10, 1/100) was 218 OD × 10^3 and 216 OD × 10^3. For the same substance, the “optical density at 492 nm” value ([1]; serum P 11, 1/100) was 1191 OD × 10^3 and 1377 OD × 10^3, the “optical density at 492 nm” value ([1]; serum P 12, 1/100) was 1121 OD × 10^3 and 1231 OD × 10^3 and the “optical density at 492 nm” value ([1]; serum P 13, 1/100) was 113 OD × 10^3 and 116 OD × 10^3. The “optical density at 492 nm” value ([1]; serum P 14, 1/100) was 280 OD × 10^3 and 270 OD × 10^3, the “optical density at 492 nm” value ([1]; serum P 15, 1/100) was 2305 OD × 10^3 and 2335 OD × 10^3 and the “optical density at 492 nm” value ([1]; serum P 16, 1/100) was 938 OD × 10^3 and 964 OD × 10^3. For the same substance, the “optical density at 492 nm” value ([1]; serum P 17, 1/100) was 217 OD × 10^3 and 212 OD × 10^3, the “optical density at 492 nm” value ([1]; serum P 18, 1/100) was 1427 OD × 10^3 and 1327 OD × 10^3 and the “optical density at 492 nm” value ([1]; serum P 19, 1/100) was 84 OD × 10^3 and 89 OD × 10^3. The “optical density at 492 nm” value ([1]; serum P 20, 1/100) was 714 OD × 10^3 and 740 OD × 10^3, the “optical density at 492 nm” value ([2]; normal serum SN 10, 1/100) was 163 OD × 10^3 and 154 OD × 10^3 and the “optical density at 492 nm” value ([2]; normal serum SN 11, 1/100) was 150 OD × 10^3 and 138 OD × 10^3. For the same substance, the “optical density at 492 nm” value ([2]; normal serum SN 16, 1/100) was 426 OD × 10^3 and 439 OD × 10^3, the “optical density at 492 nm” value ([2]; normal serum SN 17, 1/100) was 104 OD × 10^3 and 74 OD × 10^3 and the “optical density at 492 nm” value ([2]; normal serum SN 18, 1/100) was 119 OD × 10^3 and 87 OD × 10^3. For the same substance, the “optical density at 492 nm” value ([2]; normal serum SN 19, 1/100) was 480 OD × 10^3 and 496 OD × 10^3.

In the case of glutathione S-transferase, the “reactivity towards HCV-positive sera” value [3] is listed as “none of the sera tested reacts”.
